From US20040102454A1, “Phenylahistin and the phenylahistin analogs, a new class of anti-tumor compounds” (priority 1998, published 2004)
Where “and” joins values, the source holds several entries; their conditions need not be identical. Equal values may be shown once.

Columns and labels:
PARP in Jurkat cells = experiment: Cleavage of poly(ADP-ribose) polymerase (PARP), western blotting; assay type: cell-based; details: 10 hours after exposure
Excerpt: In order to assess the ability of t-butyl-phenylahistin to induce apoptosis in Jurkat cells, cleavage of poly(ADP-ribose) polymerase (PARP) was monitored. PARP is a 116 kDa nuclear protein that is one of the main intracellular targets of Caspase-3. The cleavage of PARP generates a stable 89 kDa product, and this process can be easily monitored by western blotting. Cleavage of PARP by caspases is one of the hallmarks of apoptosis, and as such serves as an excellent marker for this process.

[1] = system: OVCAR-3 Ovary (human ovarian tumor); experiment: Tumor Panel Screen, Resazurin cytotoxicity assay; assay type: cell-based
Excerpt: (§1) The following cell lines (source in parentheses) were used: HT29 (human colon tumor; ATCC; HTB-38), PC3 (human prostate tumor; ATCC; CRL-1435), MDA-MB-231 (human breast tumor; ATCC; HTB-26), NCI-H292 (human non-small cell lung tumor; ATCC; CRL-1848), OVCAR-3 (human ovarian tumor; ATCC; HTB-161), B16-F10 (murine melanoma; ATCC; CRL-6475) and CCD-27 sk (normal human fibroblast; ATCC; CRL-1475). Cells were maintained at subconfluent densities in their respective culture media.
(§2) Cytotoxicity assays were performed as described above in Example 4, using Resazurin fluorescence as an indicator of cell viability.

[2] = system: HT-29 Colon (human colon tumor); experiment: Tumor Panel Screen, Resazurin cytotoxicity assay; assay type: cell-based
Excerpt: as §1, §2

[3] = system: MDA-MB-231 Breast (human breast tumor); experiment: Tumor Panel Screen, Resazurin cytotoxicity assay; assay type: cell-based
Excerpt: as §1, §2

[4] = system: PC-3 Prostate (human prostate tumor); experiment: Tumor Panel Screen, Resazurin cytotoxicity assay; assay type: cell-based
Excerpt: as §1, §2

[5] = system: B16-F10 Melanoma (murine melanoma); experiment: Tumor Panel Screen, Resazurin cytotoxicity assay; assay type: cell-based
Excerpt: as §1, §2

[6] = system: NCI-H292 Lung (human non-small cell lung tumor); experiment: Tumor Panel Screen, Resazurin cytotoxicity assay; assay type: cell-based
Excerpt: as §1, §2

[7] = system: CCD-27sk Fibroblast (normal human fibroblast); experiment: Tumor Panel Screen, Resazurin cytotoxicity assay; assay type: cell-based
Excerpt: as §1, §2

[8] = system: DU-145 human prostate tumor; experiment: DU-145 Human Prostate Tumor Xenograft Model; assay type: in vivo, nude mice; details: alone and in combination with taxotere
Protocol: Male mice were implanted s.c. by trocar with fragments of DU-145 tumors harvested from s.c. growing tumors in nude male mice hosts. When the tumors reached ˜5 mm×5 mm ( at about 13-17 days) the animals were matched into treatment and control groups. The remainder of the study proceeded as for the HT-29 model, using taxotere as the standard chemotherapy agent.
In this model unless otherwise noted for the individual study, test compound was administered via the intraperitoneal route on Days 1, 3, 5, 8 and 11 (q3d×5); taxotere was administered intravenously on Days 1, 3 and 5 (q2d×3).
The study involved an assessment of t-butyl-phenyalhistin alone and in combination with taxotere.

HT-29 human colon tumor = experiment: HT-29 Human Colon Tumor Xenograft Model; assay type: in vivo, nude mice
Protocol: Animals used were (exceptions are indicated for individual studies): female nude mice (nu/nu) between 5 and 6 weeks of age (˜20 g, Harlan); group size was 9-10 mice per group unless otherwise indicated. The selected novel compound was administered as monotherapy via the intraperitoneal (i.p.) route at the doses indicated for the individual study; for the combination studies the selected reference chemotherapy agents were injected 15-30 min prior to the compound. Vehicles used in these studies were: 12.5% DMSO, 5% Cremaphor and 82.5% peanut oil for the selected novel compounds; (1:3) Polysorbate 80:13% ethanol for taxotere; […] Saline dilutions are used to achieve the injection concentrations used for the reference compounds. Animals were implanted subcutaneously (s.c.) by trocar with fragments of HT-29 tumors harvested from s.c. growing tumors in nude mice hosts. […] CPT-11 was administered intraperitoneally on days 1, 8 and 15 (qw×3).

[9] = system: tubulin in Human umbilical vein endothelial cells (HuVEC); experiment: Action on microtubule function, staining for α-tubulin; assay type: cell-based; details: 2 μM, thirty minutes exposure
[10] = system: HL-60/MX-2 (Mitoxantrone-Resistant) human acute promyelocytic leukemia cell line; experiment: Drug resistant cell line pair, cytotoxicity; assay type: cell-based; details: HL-60 Resistant
Excerpt: HL-60 (Mitoxantrone-Sensitive) and HL-60/MX-2 (Mitoxantrone-Resistant) This cell line is considered to have atypical drug resistance properties with altered topoisomerase II catalytic activity without overexpression of P-glycoprotein.

MCF-7 human breast tumor = experiment: MCF-7 Human Breast Tumor Xenograft Model; assay type: in vivo, nude mice; details: in combination with taxotere; compound Days 1, 2, 3, 4, and 7
Protocol: Female nude mice (˜20 g) were implanted s.c. with 21-day release estrogen (0.25 mg) pellets 24 hours prior to the s.c. implantation with MCF-7 tumor fragments (harvested from s.c. tumors in nude mice hosts). The study then proceeded as described for the HT-29 model, using taxotere as the standard chemotherapy agent.
In this model unless otherwise noted for the individual study, the novel compound was injected via the intraperitoneal route daily on Days 1-5, inclusive (qd×5); taxotere was administered intravenously on Days 1, 3 and 5 (qod×3).
This study considered the effects of t-butyl-phenylahistin in the MCF-7 human breast tumor xenograft model. The doses of the compound were administered on Days 1, 2, 3, 4, and 7; Taxotere was administered on Days 1, 3 and 7.

[11] = system: MES-SA (Taxol Sensitive) human uterine sarcoma tumor cell line; experiment: Drug resistant cell line pair, cytotoxicity; assay type: cell-based
Excerpt: (§3) MES-SA (Taxol Sensitive) and MES-SA DX (Taxol Resistant). This cell line expresses elevated mdr-1 mRNA and P-glycoprotein (an extrusion pump mechanism). Pretreatment with cyclosporin-A (CsA) blocks P-glycoprotein and reinstates activity in the resistant cell line for those compounds for which the resistance is due to elevated P-glycoprotein.

[12] = system: MES-SA DX (Taxol Resistant) human uterine sarcoma tumor cell line; experiment: Drug resistant cell line pair, cytotoxicity; assay type: cell-based; details: MES-SA DX Resistant
Excerpt: as §3

[13] = system: HL-60 (Mitoxantrone-Sensitive) human acute promyelocytic leukemia cell line; experiment: Drug resistant cell line pair, cytotoxicity; assay type: cell-based; details: HL-60 Sensitive
Excerpt: 2) Human Acute Promyelocytic Leukemia Cell Line Pair: HL-60 (Mitoxantrone-Sensitive) and HL-60/MX-2 (Mitoxantrone-Resistant)
This cell line is considered to have atypical drug resistance properties with altered topoisomerase II catalytic activity without overexpression of P-glycoprotein.

[14] = system: Caspase-3 in Jurkat cells; experiment: Activation of the caspase cascade; assay type: cell-based
Excerpt: Several enzymes in the caspase cascade are activated during apoptosis, including Caspase-3, -8 and-9. The activity of Caspase-3 was monitored in Jurkat cells following treatment with t-butyl-phenylahistin.

HuVEC monolayer = HuVEC monolayer permeability to FITC-Dextran; assay type: cell-based, human
Excerpt: This vascular collapse is preceded by a rapid induction of vascular cell permeability initially to electrolytes and soon after to large molecules. The enhanced permeability of HuVEC cells to a fluorescent-labeled dextran is used as a proxy assay for vascular collapse.

T. rubrum isolate #1 = experiment: Antifungal susceptibility testing, broth dilution (NCCLS M38-A); assay type: cell-based, Trichophyton rubrum; details: dermatophytes
Protocol: Antifungal susceptibility testing was accomplished according to the methods outlined in the National Committee for Clinical Laboratory Standards, M38-A “Reference Method for Broth Dilution Antifungal Susceptibility Testing of Conidium-Forming Filamentous Fungi; Approved Standard.” This includes testing in RPMI-1640 with glutamine and without bicarbonate, an inoculum size of 0.4-5×10^4, and incubation at 30 or 35° C. for 48 hours. […] Drug concentrations were 0.03-16 μg/ml for the investigational compounds, 0.015-8 μg/ml for itraconazole and griseofulvin.
The minimum lethal concentration (MLC) was determined by plating […] from the MIC concentration and each concentration above the MIC. […] When a MIC was obtained, a minimum fungicidal concentration (MFC) was determined to assess the fungistatic/fungicidal nature of the compound. […] The compound is scored as fungistatic if the cells are able to resume growth and fungicidal if no regrowth is possible because the compound had killed the organisms.

[15] = system: Microtubule protein from bovine brain; experiment: Microtubule protein polymerization assay (turbidity); assay type: biochemical; details: microtubule protein 1.5 mg/ml (Table 4); read-out: IC50 for Microtubule Protein Polymerization
Protocol: Microtubule protein was prepared from bovine brain tissue by two cycles of assembly and disassembly according to the method of Tiwari, S. C. et al. Anal. Biochem, (1993), 215, 96-103. Tubulin was purified from microtubule protein by phosphocellulose chromatography see Algaier, J. et al. Biochim. Biophys. Acta, (1988), 954, 235-43, and tubulin purity was evaluated by polyacrylamide gel electrophoresis, as in Laemmli, U.K., Nature, (1970), […], 680-85. […] Protein concentrations were determined using the Coomassie® Protein Assay Reagent from Pierce (Rockford, Ill.).
Polymerization of microtubule protein was monitored by an increase in turbidity at 37° C. in microtubule assembly buffer containing 100 mM MES, 0.5 mM MgCl2, 1 mM EGTA and 1 mM GTP. See Johnson, K. A. et al., J. Mol. Biol., (1977), 117, 1-31. Polymerization of purified tubulin was measured using the same method except the microtubule assembly buffer contained 4 M glycerol. See Lee, J. C. et al., Biochemistry, (1975), 14, 5183-87. Microtubule protein and tubulin polymerization was initiated by a temperature shift from 0° C. to 37° C. and turbidity was measured on a DU-20 thermocontrolled spectrophotometer from Beckman (Fullerton, Calif.) at 360 nm. Drugs were dissolved in dimethyl sulfoxide (DMSO), which was used in all experiments at a final concentration of 2% (v/v).
For this example, the microtubule protein polymerization assay was performed as follows. Microtubule protein was prepared from bovine brain tissue by two cycles of assembly and disassembly. Polymerization of microtubule protein was monitored by an increase in turbidity at 37° C. in microtubule assembly buffer containing 100 mM MES, 0.5 mM MgCl2, 1 mM EGTA and 1 mM GTP. The polymerization of microtubule protein was initiated by a temperature shift from 0° C. to 37° C. Turbidity was measured on a thermo-controlled spectrophotometer (Beckman DU-20, Fullerton, Calif.) at 360 nm. Compounds were dissolved in DMSO, which was used in all experiments at a final concentration of 2% (v/v).

P388 cells = experiment: P388 proliferation, Alamar Blue assay; assay type: cell-based, murine; details: Mus musculus, P388; Alamar Blue assay (Table 4); read-out: IC50 for P388 Proliferation
Protocol: For this example, the Alamar Blue™ assay was performed as follows. Exponentially growing P388 cells were seeded into 96-well tissue culture plates (5×10^3 cells/100 μl/well) and cultured in RPMI 1640 medium supplemented with 10% fetal bovine serum for 16 h. Compounds (DMSO solution) were then added to each well at various concentrations, and the cells were cultured for an additional 48 h. Living cells were counted using Alamar Blue™ (BioSource International, Camarillo, Calif.), according to the method of Ahmed, S. A. et al., J. Immunol. Methods, 170, 211 (1994).

In the case of C=CC(C)(C)c1nc[nH]c1/C=C1\NC(=O)C(Cc2ccccc2)NC1=O (stereo not drawn) [Halimide], the “cleavage of PARP” value (PARP in Jurkat cells) is reported as “active at inducing cleavage of PARP”.

For CC(C)(C)c1[nH]cnc1/C=C1\NC(=O)[C@H](Cc2ccccc2)NC1=O [t-butyl-phenylahistin], the “% Cytotoxicity, Mean” value [1] was 37%, the IC50 [1] was > 20000 nM and the “% Cytotoxicity, Mean” value [2] was 88%. The IC50 [2] was 420 nM, the “% Cytotoxicity, Mean” value [3] was 65.5% and the IC50 [3] was 387 nM. For the same molecule, the “% Cytotoxicity, Mean” value [4] was 59.5%, the IC50 [4] was 174 nM and the “% Cytotoxicity, Mean” value [5] was 74%. For the same molecule, the IC50 [5] was 736 nM, the “% Cytotoxicity, Mean” value [6] was 65% and the IC50 [6] was 384 nM. The “% Cytotoxicity, Mean” value [7] was 45%, the IC50 [7] was > 20000 nM and the “tumor growth inhibition indices (excised tumor weights)” value [8] was “marked inhibition of tumor growth”. The Comments (HT-29 human colon tumor; combination with CPT-11) was “Synergy”, the “NPI-Compound Result TGI %” value (HT-29 human colon tumor; monotherapy 30 mg/kg ip q3dx5, study 2139) was “No Effect” and the “Exceed NCI Criterion (TGI 58%)” value (HT-29 human colon tumor; study 2139) was “Combination”. For the same molecule, the “Combination Results TGI %” value (HT-29 human colon tumor; t-butyl-phenylahistin 30 mg/kg ip q3dx5 + CPT-11 100 ip qwx3, p < 0.05 vs Control and vs CPT-11 Alone) was 77.7%, the microtubule depolymerization [9] was “induced microtubule depolymerization” and the IC50 [10] was 175 nM. For the same molecule, the “effect on estimated tumor growth” value (MCF-7 human breast tumor) was “significant potentiation of taxotere”, the IC50 ([11]; CsA Pretreat) was 162 nM and the IC50 ([11]; No CsA) was 144 nM and 122 nM. For the same molecule, the IC50 ([12]; CsA Pretreat) was 622 nM, the IC50 ([12]; No CsA) was 825 nM and 694 nM and the IC50 [13] was 255 nM. The IC50 (Jurkat cells) was 165 nM, the caspase-3 activation [14] was “activated in a dose-dependent manner” and the “time to induction of HuVEC monolayer permeability” value (HuVEC monolayer) was ≤ 1 h. For the same molecule, the HuVEC monolayer permeability (HuVEC monolayer; FITC-Dextran) was “induced significant HuVEC monolayer permeability” and the “potency compared to griseofulvin” value (T. rubrum isolate #1) was “at least was equivalent in potency”.

In the case of Cc1[nH]cnc1C=C1NC(=O)C(Cc2ccccc2)NC1=O (stereo not drawn) [Compound 9], the melting point is reported as 285 to 286 °C (dec.), the IC50 [15] is reported as > 200000 nM and the IC50 (P388 cells) is reported as 7500 nM.
